Drawing on PubChem BioAssay (NCI), this text covers GI50 and TGI for 20 molecules.

Assay in all cases: NCI anticancer screen, dose series, 48 h
For test [1], the system named is EKVX NSCLC.
The test system of test [2] is RXF 393 renal.
The test system of test [3] is OVCAR-4 ovarian.
The test system of test [4] is SK-MEL-28 melanoma.
Test [5] relates to U251 CNS.
Test [6] has as its system RPMI-8226 leukemia.
Test [7] relates to UACC-257 melanoma.
Test [8] deals with SW-620 colon.
In test [9] the test system is HT29 colon.
The test system of test [10] is 786-0 renal.

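Test compounds were applied to cells in 96-well plates for 48 hours at 5 doses. Abbreviation: GI50, concentration required for 50% inhibition of growth. TGI is the concentration that stops growth completely.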 Bounds are passed on as bounds.

In the case of `O=C(Nc1cc(C(F)(F)F)ccc1F)Nc1n[nH]c2ccccc12`, the GI50 in test [1], in test [2], in [3], in [4], in test [5] and in test [6] was greater than 100000 nM throughout. The GI50 in [7], in [8], in test [9] and in test [10] was greater than 100000 nM each time. For the same molecule, the TGI in [1], in [2], in [3], in test [4], in test [5] and in test [6] was greater than 100 µM throughout. Further, the TGI in test [7], in [8], in test [9] and in test [10] was greater than 100 µM throughout.
With `Cn1c(=O)cc2c3c(c(NCCCO)ccc31)C(=O)c1ccccc1-2`, the GI50 is 5230 nM in test [1]; 8640 nM in test [2]; 7890 nM in [3]; 38000 nM in test [4]; 2600 nM in test [5]; 2890 nM in test [6]. Further, the GI50 in [7] is 5370 nM; in test [8], 875 nM; in [9] it was 2160 nM; in [10] it was 1530 nM. In addition, the TGI in test [1], in [2], in test [3], in test [4], in [5] and in test [6] was greater than 100 µM each time. In addition, the TGI in [7], in test [8], in [9] and in test [10] was greater than 100 µM in each case.
Turning to `O=c1[nH]c(Br)nc2c(Br)c[nH]c12`, the TGI in [1], in test [2], in test [3], in test [4], in [5] and in [6] was greater than 100 µM throughout. Moreover, the TGI in test [7], in test [8], in [9] and in [10] was greater than 100 µM throughout.
With `CC(C)=CCc1c(O)cc(/C=C/c2cc(O)c3c(c2)C[C@@H]2C(C)(C)[C@H](O)[C@H](O)C[C@@]2(C)O3)cc1O`, the GI50 in test [1] is 789 nM; in test [2], less than 1 nM; in [3] it was 831 nM; in test [4] it was 1580 nM; in test [5], 53.3 nM; in [6] it was less than 1 nM. Also, the GI50 was 2620 nM in test [7], 110 nM in test [8], 373 nM in test [9] and less than 1 nM in [10]. Also, the TGI is 4.49 µM in test [1]; 4.08 µM in test [3]; greater than 5.26 µM in test [4]; greater than 5.28 µM in test [5]; greater than 10 µM in [7]; 1.88 µM in test [8]. Also, the results for the TGI in test [9] and in [10] were 3.54 µM and greater than 6.26 µM, respectively.
`CCOC(=O)CC1(O)C=CC(=O)C=C1`: the GI50 in test [1] was 3.24 µg/mL; in [2], 0.666 µg/mL; in test [3], 2.21 µg/mL; in test [4] it was 1.04 µg/mL; in test [5], 0.477 µg/mL; in [6], 1.24 µg/mL. Also, the GI50 is 0.883 µg/mL in test [7], 1.68 µg/mL in test [8], 2.17 µg/mL in test [9] and 0.596 µg/mL in [10]. For the same molecule, the TGI stood at 6.16 µg/mL in test [1]; 1.75 µg/mL in test [2]; 4.44 µg/mL in test [3]; 2.89 µg/mL in [4]; 1.45 µg/mL in test [5]; 28.4 µg/mL in test [6]. Moreover, the TGI in [7] was 2.09 µg/mL; in test [8], 4.39 µg/mL; in [9], 4.46 µg/mL; in test [10], 2 µg/mL.
As for `COC(=O)CCC(=O)c1c(C)[nH]c(/C=C2\N=C(c3ccc[nH]3)C=C2OC)c1C`, the GI50 was 1100 nM in test [1]; 1460 nM in test [2]; 2120 nM in test [3]; 1270 nM in [4]; 1080 nM in test [5]; 360 nM in test [6]. Moreover, the GI50 in [7] is 2270 nM; in [8], 318 nM; in test [9], 73.7 nM; in test [10], 552 nM. For the same molecule, the TGI is 2.94 µM in test [1]; 4.03 µM in test [2]; 17 µM in [3]; 3.18 µM in [4]; 3.2 µM in [5]; 1.87 µM in [6]. For the same molecule, the TGI was found to be 6.37 µM in [7], 1.32 µM in test [8], 1.48 µM in test [9] and 1.82 µM in test [10].
Consider `Cn1c(CCC#N)nc2ccc(Br)cc2c1=O`, for which the TGI in [1], in [2], in test [3], in [4], in test [5] and in test [6] was greater than 100 µM each time. Moreover, the TGI in test [7], in test [8], in test [9] and in [10] was greater than 100 µM in each case.
In the case of `Cn1c(COC(=O)N2CCCCC2)nc2c(N3CCOCC3)nc(-c3ccccc3)nc21`, the GI50 in [1] is 1220 nM; in test [2], 508 nM; in [3], 638 nM; in [4] it was 1520 nM; in test [5], 1370 nM; in test [6] it was 257 nM. The GI50 in test [7] is 1220 nM; in [8] it was 235 nM; in test [9], 417 nM; in test [10], 732 nM. Moreover, the TGI in test [1] worked out at 2.65 µM; in test [2] it was 1.76 µM; in [3], 1.85 µM; in test [4], 2.86 µM; in test [5] it was 2.81 µM; in [6] it was 0.814 µM. The TGI worked out at 2.67 µM in test [7], 0.539 µM in [8], 1.59 µM in test [9] and 2 µM in [10].
For `Cc1ccccc1C(=O)Oc1ccc(Oc2ccccc2)cc1`, the TGI in [1], in test [2], in test [3], in test [5], in test [6] and in [7] was greater than 100 µM each time. Moreover, the TGI in test [8], in test [9] and in [10] was greater than 100 µM each time.
Consider `C(=C\c1csnn1)/c1cccnc1`, for which the TGI in [1], in test [2], in test [3], in test [4], in test [5] and in test [6] was greater than 100 µM throughout. Besides, the TGI in test [7], in [8], in test [9] and in test [10] was greater than 100 µM in each case.
In the case of `CC(=O)N1CC2Nc3ccccc3C2CC1CO` (stereo not given), the TGI in test [1], in test [2], in test [3], in test [4], in [5] and in [6] was greater than 100 µM in each case. The TGI in test [7], in [8], in test [9] and in test [10] was greater than 100 µM throughout.
On to `O=Cc1ccc(-c2ccc(-c3ccc(C=O)s3)o2)s1`, for which the TGI is greater than 90 µM in test [1]; 2.65 µM in [2]; greater than 100 µM in test [3]; greater than 100 µM in [4]; greater than 50.8 µM in [5]; greater than 100 µM in test [6]. The TGI in test [7] is 16.2 µM; in test [8], greater than 100 µM; in test [9], greater than 100 µM; in [10] it was greater than 100 µM.
Take `O=C1C=C(Nc2ccccc2C(=O)CC(=O)C(=O)Nc2cccc(C(F)(F)F)c2)c2ccccc2C1=O`: the TGI in test [1] is 98.7 µM; in test [2] it was 93.3 µM; in [3], greater than 87.4 µM; in test [4] it was 54.8 µM; in test [5] it was 96.5 µM; in test [6], greater than 100 µM. Further, the TGI was 31.8 µM in test [7], 48.6 µM in test [8], greater than 100 µM in test [9] and greater than 97.2 µM in test [10].
Turning to `ClCCN(CCCl)c1ccc(-n2cnc3c(Cl)ncnc32)cc1`, the GI50 in test [1] is 1650 nM; in [2] it was 1860 nM; in [3] it was 1850 nM; in test [4], 1940 nM; in test [5] it was 2910 nM; in [6] it was 9690 nM. Moreover, the GI50 in [7] was 2240 nM; in [8] it was 1760 nM; in test [9], 2070 nM; in [10], 14000 nM. In addition, the TGI in test [1] stood at 3.66 µM; in [2], 3.33 µM; in test [3], 3.33 µM; in test [4] it was 3.64 µM; in test [5], 9.1 µM; in [6], 59.1 µM. Further, the TGI turned out to be 5.16 µM in test [7], 3.29 µM in [8], 4.15 µM in test [9] and 28.4 µM in test [10].
With `CCCNCc1nc2ccc(Br)cc2c(=O)n1CCC`, the TGI was 33.3 µM in test [1]; 29.1 µM in [2]; 27.7 µM in test [3]; 29 µM in [4]; 26.3 µM in [5]; greater than 100 µM in test [6]. The TGI in [7] was determined as 26 µM; in test [8], 28.3 µM; in test [9] it was 29.9 µM; in test [10] it was 29.5 µM.
In the case of `COc1cnc2c(c1)C(=O)c1c-2n(CCCn2ccnc2)c(=O)c2cc(Cl)ccc12`, the GI50 in test [1] was 251 nM; in test [2] it was 40.7 nM; in [3], 362 nM; in test [4] it was 611 nM; in test [5] it was 14.4 nM; in test [6], 50.4 nM. Also, the GI50 in test [7] was 90.4 nM; in [8], 26.2 nM; in test [10], 26.2 nM. For the same molecule, the TGI is greater than 100 µM in [1]; 0.235 µM in test [2]; greater than 100 µM in test [3]; greater than 100 µM in test [4]; 0.119 µM in [5]; 0.987 µM in [6]. For the same molecule, the TGI in [7] was 1.91 µM; in test [8], greater than 100 µM; in test [10], 0.0823 µM.
As to `O=C(N/N=C1\CCc2ccccc2C1)N/N=C1\CCc2ccccc2C1`, the TGI in test [1], in test [2], in test [3], in [5], in test [6] and in [7] was greater than 10 µM throughout. The TGI in test [8], in test [9] and in [10] was greater than 10 µM each time.
As to `O=C1/C(=C/c2ccccc2Cl)N=C(c2ccccc2)N1Cc1ccco1`, the GI50 in test [1] is 54000 nM; in test [2] it was 16400 nM; in test [4], 44700 nM; in test [5] it was 57800 nM; in [6] it was 25400 nM; in test [7], 21200 nM. For the same molecule, the GI50 in test [8] was 89600 nM; in test [9] it was 36400 nM; in test [10] it was 34700 nM. In addition, the TGI was greater than 100 µM in test [1]; 93 µM in test [2]; greater than 100 µM in [4]; greater than 100 µM in test [5]; greater than 100 µM in [6]; 39.8 µM in [7]. In addition, the TGI in [8], in test [9] and in test [10] was greater than 100 µM throughout.
Regarding `Nc1ccc2c(c1)C(=O)c1c(F)cccc1-2`, the TGI in test [1] was 37.7 µM; in [2] it was greater than 100 µM; in test [4], greater than 100 µM; in test [5], greater than 100 µM; in test [6] it was greater than 100 µM; in [7], greater than 100 µM. Further, the TGI in test [8], in test [9] and in [10] was greater than 100 µM each time.
Turning to `Cc1cc(NS(=O)(=O)c2ccc(NC(=O)c3cccc4c(N)c5ccccc5nc34)cc2)no1`, the TGI in [1] is greater than 100 µM; in test [2], 31.9 µM; in test [3], 70.5 µM; in [4], 44.2 µM; in test [5] it was 78.2 µM; in test [6] it was 62.6 µM. Moreover, the TGI in test [8] came to 94.2 µM; in test [9], 80.8 µM; in [10], 33.7 µM.
